Read-outs that look alike come from different tables or passages of the source.
How the values were obtained:
L. major [1] = test: ChEMBL dataset of pIC50 values against L. major used for the RF model (Table S1); format: cell-based, Leishmania major; further: call rule not given here
L. major [2] = tested on: L. major; parameters: method as in ChEMBL; settings: ref ChEMBL, cited from earlier work
[3] = Active/Inactive class assigned to the ChEMBL pIC50 value for Random forest model construction, ref ChEMBL
[4] = ChemBL structures with pIC50 values used for Random forest model construction, L. major
[5] = Active/Inactive class assigned to ChemBL structures for Random forest model construction (Table S1)
[6] = ChemBL structures with pIC50 values used for Random forest model construction (Table S1)

Compound	Outcome (L. major [1]; [3])	pIC50 Value (L. major [2]; [4])	Outcome (L. major [1]; [5])	pIC50 Value (L. major [2]; [6])
CCOC(=O)c1ccc(-c2nc3ccccn3c2-c2ccccc2)cc1 [CHEMBL2151879]	Inactive	4.40		
CC(C)c1ccc(-c2nc3ccccc3[nH]2)cc1 [CHEMBL2298014]			Active	5.57
COc1cc(OC)c2c(C)[n+](-c3ccccc3)c(C)cc2c1.[Cl-] [CHEMBL3706859]	Inactive	4.33		
CC(C)(C)c1ccc(CN2CCN(c3ccnc4cc(Cl)ccc34)CC2)cc1 [CHEMBL1256730]	Inactive	4.21		
Cc1ccc(/C=C2/C(=O)NN(c3ccc(F)cc3)C2=O)o1 [CHEMBL1256858]	Inactive	4.04		
CCOC(=O)C1=C(C)NC(=S)NC1c1cccc(O)c1 (stereo not drawn) [CHEMBL236789]			Active	5.65
COc1cc2c(c(OC)c1)C(C)N(c1ccc(OC)c3c(OC)cc(C)cc13)[C@@H](C)C2 (stereo partly drawn) [CHEMBL479849]	Inactive	4.19		
O=[N+]([O-])c1ccc(-c2nnc(N3CCNCC3)s2)s1 [CHEMBL193685]	Inactive	3.82		
C/C=C/C=C/c1nc2ccccc2n2ccc(OCC)c12 [CHEMBL3260219]			Active	5.82
C[C@H]1COC2=C1C(=O)C(=O)c1c2ccc2c1CCCC2(C)C [CHEMBL187460]	Inactive	4.74		
COc1ccc(-c2nc3ccc([N+](=O)[O-])cc3[nH]2)cc1 [CHEMBL1535921]			Active	5.50
Cc1cccc(Cn2cc(CNc3nnc(-c4ccc([N+](=O)[O-])o4)s3)nn2)c1 [CHEMBL1951529]	Inactive	4.66		
Clc1cc(Cl)cc(-c2c(-c3ccccc3)nc3ccccn23)c1 [CHEMBL2151868]	Active	5.11		
COc1cc(/C=N/NC(=O)c2ccccc2OC)cc(OC)c1 [CHEMBL2382053]	Inactive	4.27		
COCCOC(=O)C1=C(C)NC(C)=C(C(=O)OC(C)C)C1c1cccc([N+](=O)[O-])c1 (stereo not drawn) [CHEMBL1428]	Inactive	4.51		
COc1ccc(C(=O)/C=C/c2ccc(-n3ccnc3)cc2)cc1OC [CHEMBL570484]			Active	5.61
Fc1cccc(Cl)c1Cc1nn2c(-c3ccccc3)nnc2s1 [CHEMBL1256825]	Inactive	4.00		
O=[N+]([O-])c1ccc(-c2nnc(NCc3cn(Cc4ccccc4F)nn3)s2)o1 [CHEMBL1951523]	Inactive	4.72		
COc1cc(OC)c2c(C)[n+](-c3cccc4cc5ccccc5cc34)c(C)cc2c1.O=C([O-])C(F)(F)F [CHEMBL516450]			Active	5.73
CCCCCCNc1ccc(Nc2c3ccccc3nc3ccccc23)cc1 [CHEMBL299581]			Active	6.26
CCCN1CN(CC(=O)O)CSC1=S [CHEMBL4287780]	Inactive	4.41		
CC(Cl)C(=O)N1c2ccccc2Oc2ccccc21 (stereo not drawn) [CHEMBL3759769]	Inactive	4.00		

Compound	Outcome (L. major [1]; [3])	pIC50 Value (L. major [2]; [4])	Outcome (L. major [1]; [5])	pIC50 Value (L. major [2]; [6])
CCCCCCCCCCCCCCCCOP(=O)([O-])OCC[N+](C)(C)C [CHEMBL125]	Inactive	4.44		
CN(C)CCNc1nccn2c(I)c(-c3ccccc3)nc12 [CHEMBL3634357]	Inactive	4.62		
O=[N+]([O-])c1cccc(-c2nc3ccc([N+](=O)[O-])cc3[nH]2)c1 [CHEMBL1563210]			Active	5.56
CCCCN1CSC(=S)N(CC(=O)O)C1 [CHEMBL4278695]	Inactive	4.44		
COc1ccccc1C(=O)N/N=C/c1ccc(O)c(O)c1 [CHEMBL2382034]			Active	5.48
CCCCNC(=N)c1ccc(N2CCN(c3nnc(-c4ccc([N+](=O)[O-])o4)s3)CC2)cc1.Cl [CHEMBL1783204]	Inactive	4.96		
COc1ccc([C@@H]2COc3c(ccc4occc34)C2)c(OC)c1O [CHEMBL498724]	Inactive	4.76		
COc1ccccc1C(=O)N/N=C/c1ccncc1 [CHEMBL2382030]	Inactive	4.12		
CCN(CC)CCNc1ccc(Nc2c3ccccc3nc3ccccc23)cc1OC [CHEMBL92012]			Active	5.80
COc1ccc(O)c(/C=N/NC(=O)c2ccccc2OC)c1 [CHEMBL2382038]	Inactive	4.00		
O=C(CN1CCOCC1)Nc1ccc2ncnc(Nc3ccc(OCc4cccc(F)c4)c(Cl)c3)c2c1 [CHEMBL3637894]	Inactive	4.91		
COc1cc(OC)c2c(C)[n+](-c3c(C)cccc3C)c(C)cc2c1.F[B-](F)(F)F [CHEMBL521247]			Active	5.46
O=[N+]([O-])c1ccc2nc(-c3cccs3)[nH]c2c1 [CHEMBL2297907]			Active	5.48
COc1cc(OC)c2c(C)[n+](-c3cccc(C)c3C)c(C)cc2c1.F[B-](F)(F)F [CHEMBL480823]	Inactive	4.94		
Clc1cc(Cl)cc(-c2c(-c3ccccc3)nc3cnccn23)c1 [CHEMBL3634355]	Inactive	4.99		
COc1cc(/C=N/NC(N)=S)ccc1OCc1cn(CC(=O)c2ccc(C)cc2)nn1 [CHEMBL4163267]			Active	5.30
Fc1ccc(-c2nc3ccccc3[nH]2)cc1 [CHEMBL1596095]			Active	5.43
CC(c1ccccc1)N1CN(CC(=O)O)CSC1=S (stereo not drawn) [CHEMBL4286679]	Inactive	4.51		
Cc1cccc2cc(C3CC(c4cc(Cl)sc4Cl)=NN3)c(Cl)nc12 (stereo not drawn) [CHEMBL2236131]			Active	5.70
O=C(c1ccccc1Cl)N1CCN(c2nnc(-c3ccc([N+](=O)[O-])o3)s2)CC1 [CHEMBL458179]	Inactive	4.97		
Fc1ccc(-c2nc3ccccn3c2-c2ccccc2)cc1 [CHEMBL2151873]	Inactive	4.64		
COc1ccc(-c2c(-c3ccccc3)nc3ccccn23)cc1 [CHEMBL2151858]	Active	5.14		

Compound	Outcome (L. major [1]; [3])	pIC50 Value (L. major [2]; [4])	Outcome (L. major [1]; [5])	pIC50 Value (L. major [2]; [6])
C/C=C/C=C/c1nc2ccc(OC)cc2n2cccc12 [CHEMBL3260208]			Active	5.57
Cc1ccc(-c2nc3ccc([N+](=O)[O-])cc3[nH]2)cc1 [CHEMBL1446966]			Active	5.46
CCC(C)NC(=N)c1ccc(N2CCN(c3nnc(-c4ccc([N+](=O)[O-])o4)s3)CC2)cc1.Cl (stereo not drawn) [CHEMBL1783205]	Inactive	4.48		
COc1ccccc1-c1nnc(-c2ccc(C(=O)N/N=C/c3ccc(O)cc3)cc2)o1 [CHEMBL4085064]	Active	5.13		
CNC(=N)c1ccc(N2CCN(c3nnc(-c4ccc([N+](=O)[O-])o4)s3)CC2)cc1.Cl [CHEMBL1783201]	Inactive	4.64		
Cc1ccc2cc(/C=C/C(=O)c3sccc3Br)c(Cl)nc2c1 [CHEMBL1940858]			Active	5.74
c1ccc(-c2nc3ccccc3[nH]2)cc1 [CHEMBL153535]			Active	5.46
Cc1ccc2nc(CCC3CCCCC3)[nH]c2c1 [CHEMBL1255797]	Inactive	4.63		
Cn1cc(C2N(c3ccc(Cl)cc3)C(=O)C2(c2ccccc2)c2ccccc2)c2ccccc21 (stereo not drawn) [CHEMBL2071563]			Active	5.78
O=[N+]([O-])c1ccc2nc(-c3ccc(Cl)cc3)[nH]c2c1 [CHEMBL1407741]			Active	5.63
COc1cc(OC)c2c(C)[n+](-c3ccc4cc5ccccc5cc4c3)c(C)cc2c1.F[B-](F)(F)F [CHEMBL482393]			Active	6.17
CCOC(=O)c1ccc(-c2c(-c3ccccc3)nc3ccccn23)cc1 [CHEMBL2151866]	Active	5.28		
O=[N+]([O-])c1ccc(-c2nnc(N3CCCCC3)s2)s1 [CHEMBL191691]	Inactive	3.82		
COc1ccc(-c2ccc(OC)c3ccccc23)c2c1C=NCC2 [CHEMBL1277828]	Inactive	4.33		
O=C(c1ccc(Br)s1)N1CCN(c2nnc(-c3ccc([N+](=O)[O-])s3)s2)CC1 [CHEMBL518866]	Inactive	4.61		
COc1ccc(/C=N/NC(=O)c2ccccc2OC)cc1 [CHEMBL2382041]	Inactive	4.40		
COc1cc2c(c(OC)c1)C(C)N(c1ccc(OC)c3c(OC)cc(C)cc13)[C@H](C)C2 (stereo partly drawn) [CHEMBL479850]	Inactive	4.18		
COc1ccc(/C=N\NC(N)=S)cc1OCc1cn(CC(=O)c2ccccc2)nn1 [CHEMBL4171583]			Active	5.36
Cn1cc(C=Nc2ccccc2)c2ccccc21 [CHEMBL2071552]			Active	5.49
CCCCN1CSC(=S)N(C(C)c2ccccc2)C1 (stereo not drawn) [CHEMBL4287541]	Inactive	4.67		
Fc1ccc(-c2nc3c(NCCN4CCOCC4)nccn3c2I)cc1 [CHEMBL3634362]			Active	5.55
c1ccc(-c2nc3ccccn3c2-c2cccnc2)cc1 [CHEMBL2151869]	Inactive	4.65		
